Reference: patent US20250230165A1, “HETEROCYCLIC COMPOUNDS FOR USE IN THE TREATMENT OF CANCER” (ARTIOS PHARMA LIMITED, priority 2021, published 2025)

What follows are compounds tested against T1, Human Polθ polymerase domain (aa1820-2590) (Homo sapiens, UniProt O75417) (assay: Polθ Polymerase Domain Kinact/KI Assay (PicoGreen)). Settings: 0.8 nM Polθ, 100 nM DNA substrate, kobs vs [I] fit for 2-step covalent inhibitor.
T1 construct: Human Polθ polymerase domain (aa1820-2590) was expressed in E. coli; made in house; host or cells: E. coli
T1 sequence (O75417 1820-2590): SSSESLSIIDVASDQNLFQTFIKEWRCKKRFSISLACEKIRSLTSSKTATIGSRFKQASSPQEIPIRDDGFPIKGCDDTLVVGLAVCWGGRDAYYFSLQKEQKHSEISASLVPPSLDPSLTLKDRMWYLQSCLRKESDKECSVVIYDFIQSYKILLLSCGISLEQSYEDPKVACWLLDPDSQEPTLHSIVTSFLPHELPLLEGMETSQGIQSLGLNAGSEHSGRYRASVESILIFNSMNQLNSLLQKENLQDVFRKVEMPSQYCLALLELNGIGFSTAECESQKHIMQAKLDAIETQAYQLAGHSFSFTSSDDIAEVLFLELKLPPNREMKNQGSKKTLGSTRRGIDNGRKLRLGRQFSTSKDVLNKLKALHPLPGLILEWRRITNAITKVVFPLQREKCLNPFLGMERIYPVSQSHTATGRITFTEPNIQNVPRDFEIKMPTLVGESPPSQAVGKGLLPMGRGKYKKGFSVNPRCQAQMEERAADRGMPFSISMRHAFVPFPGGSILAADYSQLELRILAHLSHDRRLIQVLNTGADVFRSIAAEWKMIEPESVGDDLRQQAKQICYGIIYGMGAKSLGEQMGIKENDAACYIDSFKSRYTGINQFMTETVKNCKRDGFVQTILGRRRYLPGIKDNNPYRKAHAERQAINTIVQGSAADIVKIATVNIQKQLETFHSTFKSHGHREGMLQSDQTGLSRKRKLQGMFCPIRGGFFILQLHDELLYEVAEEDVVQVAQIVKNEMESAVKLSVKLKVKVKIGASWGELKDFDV
Assay type: biochemical
Method in brief: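 Covalent inhibitors were tested against E. coli-expressed enzyme (0.8 nM final) with 100 nM annealed DNA substrate and […] in Tris pH 7.5 buffer, 1% DMSO. Reactions were EDTA-quenched over a 0–60 min time course and product DNA detected by PicoGreen fluorescence.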

Kinact/Kl [M⁻¹ s⁻¹]	Structure (SMILES)
670000	Cc1cc(C(F)(F)F)cc(N2C(=O)C[C@@H]3CN(CC45CC(CNC(=O)/C=C/CN(C)C)(C4)C5)c4c(C)cccc4N(C)C(=O)[C@H]32)n1 [Example 179, (E)-N-((3-(((3aR, 11aS)-6,10-dimeth-yl-1-(6-methyl-4-(trifluoromethyl)-pyridin-2-yl)-2,11-dioxo-1,2,3,3a,4, 10,11,11a-octa-hydro-5H-benzo [b]pyrrolo[2,3-f] [1,4]diazocin-5-yl)methyl)bicyclo [1.1.1]pentan-1-yl)methyl)-4-(dimethylamino)-but-2-enamide]
1.98e+06	C=CC(=O)N1CC(F)(COCCN2C[C@H]3CC(=O)N(c4cc(C(F)(F)F)cc(C)n4)[C@@H]3C(=O)N(C)c3cccc(Cl)c32)C1 [Example 285, (3aR,11aS)-5-(2-((1-acryloyl-3-fluoroazetidin-3-yl)methoxy)ethyl)-6-chloro-10-methyl-1-(6-methyl-4-(trifluoromethyl)pyridin-2-yl)-1,3a,4,5,10,11a-hexahydro-2H-benzo[b]pyrrolo[2,3-f][1,4]diazocine-2,11(3H)-dione]
1.61e+06	C=CC(=O)N1Cc2cc(CN3C[C@H]4CC(=O)N(c5cc(C(F)(F)F)cc(C)n5)[C@@H]4C(=O)N(C)c4cccc(Cl)c43)nn2CC1C (single isomer, unassigned) [Example 294a]
4.19e+06	C=CC(=O)N1Cc2nc(CN3C[C@H]4CC(=O)N(c5cc(C(F)(F)F)cc(C)n5)[C@@H]4C(=O)N(C)c4cccc(C)c43)cn2C[C@@H]1C (racemic) [Example 206b, (3aR,11aS)-5-(((S/R)-7-acryloyl-6-methyl-5,6,7,8-tetrahydroimidazo [1,2-a]pyrazin-2-yl)methyl)-6,10-dimethyl-1-(6-methyl-4-(trifluoromethyl)pyridin-2-yl)-1,3a,4,5,10,11a-hexahydro-2H-benzo[b]pyrrolo [2,3-f][1,4]diazocine-2,11(3H)-dione]
2.04e+06	C=C(CN(C)C)C(=O)N1CC(c2ccc(CN3C[C@H]4CC(=O)N(c5cc(C(F)(F)F)cc(C)n5)[C@@H]4C(=O)N(C)c4cccc(F)c43)cc2)C1 [Example 151, (3aR, 11aS)-5-(4-(1-(2-((dimethylamino)methyl)acryloyl)azetidin-3-yl)benzyl)-6-fluoro-10-methyl-1-(6-methyl-4-(trifluoromethyl)pyridin-2-yl)-1,3a,4,5,10,11a-hexahydro-2H-benzo[b]pyrrolo[2,3-f][1,4]diazocine-2,11(3H)-dione]
900000	C=CC(=O)N1Cc2nc(CN3C[C@H]4CC(=O)N(c5cc(C(F)(F)F)cc(C)n5)[C@@H]4C(=O)N(C)c4cccc(Cl)c43)n(CC)c2C1 [Example 279, (3aR,11aS)-5-((5-acryloyl-1-ethyl-1,4,5,6-tetrahydropyrrolo[3,4-d]imidazol-2-yl)methyl)-6-chloro-10-methyl-1-(6-methyl-4-(trifluoromethyl)pyridin-2-yl)-1,3a,4,5,10,11a-hexahydro-2H-benzo[b]pyrrolo[2,3-f][1,4]diazocine-2,11(3H)-dione]
3.8e+06	C=C(CN(C)C)C(=O)N1CC(CCCCN2C[C@H]3CC(=O)N(c4cc(C(F)(F)F)cc(C)n4)[C@@H]3C(=O)N(C)c3cccc(C)c32)C1 [Example 183, (3aR,11aS)-5-(4-(1-(2-((dimethyl-amino)methyl)-acryloyl)azetidin-3-yl)butyl)-6,10-dimethyl-1-(6-methyl-4-(trifluoro-methyl)pyridin-2-yl)-1,3a,4,5,10,11a-hexahydro-2H-benzo[b]pyrrolo [2,3-f][1,4]diazo-cine-2,11(3H)-dione]
1.69e+06	C=CC(=O)N1CC2(C1)NCCN(CCN1C[C@H]3CC(=O)N(c4cc(C(F)(F)F)cc(C)n4)[C@@H]3C(=O)N(C)c3cccc(F)c31)C2C (single isomer, unassigned) [Example 34b]
4.38e+06	C=CC(=O)Nc1ccc(CN2C[C@H]3CC(=O)N(c4cc(C(F)(F)F)cc(C)n4)[C@@H]3C(=O)N(C)c3cccc(C)c32)cc1N(C)CCN(C)C [Example 91, N-(4-(((3aR,11aS)-6,10-dimethyl-1-(6-methyl-4-(trifluoromethyl)pyridin-2-yl)-2,11-dioxo-1,2,3,3a,4,10,11,11a-octahydro-5H-benzo[b]pyrrolo[2,3-f][1,4]diazocin-5-yl)methyl)-2-((2-(dimethylamino)ethyl)(methyl)amino)phenyl)acrylamide]
4.32e+06	C=CC(=O)N1CCn2cc(CN3C[C@H]4CC(=O)N(c5cc(C(F)(F)F)cc(C)n5)[C@@H]4C(=O)N(C)c4cccc(C)c43)nc2C1 [Example 203, (3aR,11aS)-5-((7-acryloyl-5,6,7,8-tetrahydroimidazo [1,2-a]pyrazin-2-yl)methyl)-6,10-dimethyl-1-(6-methyl-4-(trifluoromethyl)pyridin-2-yl)-1,3a,4,5,10,11a-hexahydro-2H-benzo[b]pyrrolo [2,3-f][1,4]diazocine-2,11(3H)-dione]
2.54e+06	C=CC(=O)N1Cc2nc(CN3C[C@H]4CC(=O)N(c5cc(C(F)(F)F)cc(C)n5)[C@@H]4C(=O)N(C)c4cccc(Cl)c43)sc2C1 [Example 280, (3aR,11aS)-5-((5-acryloyl-5,6-dihydro-4H-pyrrolo[3,4-d]thiazol-2-yl)methyl)-6-chloro-10-methyl-1-(6-methyl-4-(trifluoromethyl)pyridin-2-yl)-1,3a,4,5,10,11a-hexahydro-2H-benzo[b]pyrrolo[2,3-f][1,4]diazocine-2,11(3H)-dione]
2.48e+06	C=CC(=O)N1Cc2ncc(CN3C[C@H]4CC(=O)N(c5cc(C(F)(F)F)cc(C)n5)[C@@H]4C(=O)N(C)c4cccc(C)c43)cc2[C@@H]1CC#N (racemic) [Example 320b, 2-((S/R)-6-acryloyl-3-(((3aR,11aS)-6,10-dimethyl-1-(6-meth-yl-4-(trifluorometh-yl)pyridin-2-yl)-2,11-dioxo-1,2,3,3a, 4, 10,11,11a-octa-hydro-5H-benzo[b]pyrrolo[2,3-f][1,4]diazocin-5-yl)meth-yl)-6,7-dihydro-5H-pyrrolo[3,4-b]pyr-idin-5-yl)acetonitrile]
1.89e+06	C=CC(=O)N1Cc2cc(CN3C[C@H]4CC(=O)N(c5cc(C(F)(F)F)cc(C)n5)[C@@H]4C(=O)N(C)c4cccc(C)c43)cnc2C1CO (single isomer, unassigned) [Example 232]
610000	Cc1cc(C(F)(F)F)cc(N2C(=O)C[C@@H]3CN(Cc4cccc(C5CN(C(=O)/C=C/CN(C)C)C5)c4)c4c(F)cccc4N(C)C(=O)[C@H]32)n1 [Example 147, (3aR,11aS)-5-(3-(1-((E)-4-(dimethylamino)but-2-enoyl)azetidin-3-yl)benzyl)-6-fluoro-10-methyl-1-(6-methyl-4-(trifluoromethyl)pyridin-2-yl)-1,3a,4,5,10,11a-hexahydro-2H-benzo[b]pyrrolo[2,3-f][1,4]diazocine-2,11(3H)-dione]

Structure (SMILES)	Kinact/Kl [M⁻¹ s⁻¹]
C=CC(=O)NC1CCN(CCN2C[C@H]3CC(=O)N(c4cc(C(F)(F)F)cc(C)n4)[C@@H]3C(=O)N(C)c3cccc(Cl)c32)CC1(F)F (mixture of isomers) [Example 257a, N—((S/R)-1-(2-((3aR,11aS)-6-chloro-10-methyl-1-(6-methyl-4-(trifluoromethyl)pyridin-2-yl)-2,11-dioxo-1,2,3,3a,4,10,11,11a-octahydro-5H-benzo[b]pyrrolo[2,3-f][1,4]diazocin-5-yl)ethyl)-3,3-difluoropiperidin-4-yl)acrylamide]	2.17e+06
